# Measured values reported in patent US20250387449A1, “PHARMACEUTICAL COMBINATION COMPRISING AN IBAT INHIBITOR AND A BILE ACID BINDER” (Albireo AB, priority 2010, published 2025).
# Columns and labels:
# [1] = Phase IIb placebo-controlled dose-finding study in patients with Chronic Idiopathic Constipation: adverse events; assay type: in vivo, human; settings: Example 14 plus colonic delivery of 400 mg colesevelam 3 times a day
# [2] = as above; assay type: in vivo, human; settings: 56 days treatment
# Protocol: A Phase IIb, Double-blind, Randomized, Placebo-controlled, Multi-centre, Dose-finding, Efficacy and Safety Study of a Range of Doses of the compound of Example 14 in about 200 patients with Chronic Idiopathic Constipation, where patients were treated for 56 days, was performed. The patients were males or non-pregnant females ≥20 years of age and ≤80 years of age, having a body mass index (BMI) ≥18.5 but <35.
# All patients with adverse events of diarrhea and abdominal pain type related to treatment with the compound of Example 14 are presented in table 2.
smiles,measurement,setting,value
"CCCCC1(CCCC)CN(c2ccccc2)c2cc(SC)c(OCC(=O)N[C@@H](C(=O)NCC(=O)O)c3ccccc3)cc2S(=O)(=O)C1 [Example 14, 1,1-Dioxo-3,3-dibutyl-5-phenyl-7-methylthio-8-(N—{(R)-1′-phenyl-1′-[N′-(carboxymethyl)-carbamoyl]methyl}carbamoylmethoxy)-2,3,4,5-tetrahydro-1,5-benzothiazepine]","bile acid dependent side effects generated from colon (diarrhoea, abdominal pain)",[1],effectively block bile acid side effects generated from the colon
same,"Abdominal Pain, % of Population",[2]; 5 mg,10.4 % of Population
same,"Abdominal Pain, Number of Patients",[2]; 5 mg,5
same,"Diarrhoea, % of Population",[2]; 5 mg,8.3 % of Population
same,"Diarrhoea, Number of Patients",[2]; 5 mg,4
same,"Abdominal Pain, % of Population",[2]; 10 mg,10.6 % of Population
same,"Abdominal Pain, Number of Patients",[2]; 10 mg,5
same,"Diarrhoea, % of Population",[2]; 10 mg,10.6 % of Population
same,"Diarrhoea, Number of Patients",[2]; 10 mg,5
same,"Abdominal Pain, % of Population",[2]; 15 mg,27.1 % of Population
same,"Abdominal Pain, Number of Patients",[2]; 15 mg,13
same,"Diarrhoea, % of Population",[2]; 15 mg,16.7 % of Population
same,"Diarrhoea, Number of Patients",[2]; 15 mg,8
